# Results from PMC3350798 (Journal of Medicinal Chemistry, 2012).
# “Also recorded” adds a separate entry of the source. Like-named read-outs stand apart in the source and are kept apart here.
# How the values were obtained:
# Tdp1 [1] = target: T1, Tdp1 (Homo sapiens, UniProt Q9NUW8); conditions: cited from earlier work
# Tdp1 [2] = target: T1, Tdp1; assay: FRET assay, mechanism of inhibition of Tdp1; format: biochemical
# Tdp1 [3] = target: T1, Tdp1; assay: Surface plasmon resonance binding to amine coupled Tdp1; conditions: 33, 11, 3.7, 1.2 and 0.4 μM injected over amine coupled Tdp1
# Human recombinant Top1 = target: T2, Human recombinant Top1 (Homo sapiens, UniProt P11387); assay: Topoisomerase I-mediated DNA cleavage assay; format: biochemical; conditions: semiquantitative, relative to 1 μM camptothecin
# T2 sequence (P11387 1-765): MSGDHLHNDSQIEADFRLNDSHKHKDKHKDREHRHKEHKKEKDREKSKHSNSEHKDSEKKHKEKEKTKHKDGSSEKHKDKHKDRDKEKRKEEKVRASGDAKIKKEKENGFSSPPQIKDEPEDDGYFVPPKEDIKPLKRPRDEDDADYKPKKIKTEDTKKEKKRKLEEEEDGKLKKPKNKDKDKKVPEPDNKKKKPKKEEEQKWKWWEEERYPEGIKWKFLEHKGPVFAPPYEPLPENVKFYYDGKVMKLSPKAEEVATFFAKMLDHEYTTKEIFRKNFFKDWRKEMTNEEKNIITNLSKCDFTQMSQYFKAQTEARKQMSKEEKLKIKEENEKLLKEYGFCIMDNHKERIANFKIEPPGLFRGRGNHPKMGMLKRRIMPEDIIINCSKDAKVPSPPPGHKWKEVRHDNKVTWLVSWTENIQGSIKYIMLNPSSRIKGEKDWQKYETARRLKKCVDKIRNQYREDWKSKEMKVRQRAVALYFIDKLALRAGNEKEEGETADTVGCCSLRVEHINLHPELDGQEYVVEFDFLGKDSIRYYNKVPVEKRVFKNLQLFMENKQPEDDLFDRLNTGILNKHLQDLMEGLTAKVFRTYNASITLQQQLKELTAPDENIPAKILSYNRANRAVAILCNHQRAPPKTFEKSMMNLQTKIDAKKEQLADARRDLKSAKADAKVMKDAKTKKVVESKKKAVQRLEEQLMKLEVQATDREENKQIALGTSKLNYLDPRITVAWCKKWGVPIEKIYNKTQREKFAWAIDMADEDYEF
# [4] = test system: 60 human cancer cell lines; conditions: read-out: MGM GI50, mean graph midpoint; cited from earlier work
# T1 sequence (Q9NUW8 whole entry): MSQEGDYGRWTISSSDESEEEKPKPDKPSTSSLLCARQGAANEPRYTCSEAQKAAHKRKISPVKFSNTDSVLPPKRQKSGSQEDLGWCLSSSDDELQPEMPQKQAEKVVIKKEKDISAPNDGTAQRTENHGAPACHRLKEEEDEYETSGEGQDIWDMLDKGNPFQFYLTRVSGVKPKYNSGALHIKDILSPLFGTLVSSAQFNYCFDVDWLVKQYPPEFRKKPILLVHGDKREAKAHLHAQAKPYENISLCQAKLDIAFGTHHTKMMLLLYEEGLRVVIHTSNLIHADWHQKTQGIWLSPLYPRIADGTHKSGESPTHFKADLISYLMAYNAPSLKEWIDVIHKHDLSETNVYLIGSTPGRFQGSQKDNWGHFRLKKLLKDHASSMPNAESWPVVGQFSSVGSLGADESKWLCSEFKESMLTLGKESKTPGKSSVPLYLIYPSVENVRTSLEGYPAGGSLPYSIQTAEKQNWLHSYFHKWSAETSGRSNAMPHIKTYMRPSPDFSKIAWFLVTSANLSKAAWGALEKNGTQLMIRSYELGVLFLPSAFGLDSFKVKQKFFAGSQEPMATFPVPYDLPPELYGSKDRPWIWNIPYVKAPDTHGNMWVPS
smiles,measurement,setting,value
[O]=[V]([O-])([O-])[O-] [vanadate],Tdp1 inhibition,Tdp1 [1],inhibition at millimolar concentrations
Cl.NCCCn1c2c(c3ccccc3c1=O)C(=O)c1ccccc1-2 [compound 70],Mechanism of inhibition of Tdp1,Tdp1 [2],competitive inhibitor
same,Binding to Tdp1 by surface plasmon resonance,Tdp1 [3],direct binding; also recorded: rapidly reaches equilibrium and then completely dissociates
Cl.NCCCCCCCCCCCCn1c2c(c3ccccc3c1=O)C(=O)c1ccccc1-2 [compound 79],Top1 (compound-induced DNA cleavage due to Top1 inhibition),Human recombinant Top1,0/+
"C[C@]12CC[C@H]3[C@@H](CCC4=CC(=O)CC[C@@]43C)[C@@H]1CC[C@@H]2C(=O)COS(=O)(=O)c1ccc(Br)cc1 [compound 7, 4-Pregnen-21-ol-3,20-dione-21-(4-bromobenzenesufonate)]",Mechanism of inhibition of Tdp1,Tdp1 [1],competitive with the DNA substrate
"O=C1c2ccccc2-c2c1c1ccccc1c(=O)n2CCCNCCCNCCCn1c2c(c3ccccc3c1=O)C(=O)c1ccccc1-2 [compound 145, Bis-1,3-{(5,6-dihydro-5,11-diketo-11H-indeno[1,2-c]isoquinoline)-6-propylamino}propane Bis(trifluoroacetate)]",GI50,[4],394 nM
